Test results: article PMC5218480 (PLoS ONE, 2017)

Tested on: MV-4-11 cells
Experiment: Gene expression microarray analysis (Affymetrix PrimeView) and GSEA
Format: cell-based, human
Parameters: RFU PODN (11730768_x_at) / Fold change /veh PODN (11730768_x_at) / RFU LINC00158 (11744669_a_at) / Fold change /veh LINC00158 (11744669_a_at) / RFU DUSP10 (11751237_a_at) / Fold change /veh DUSP10 (11751237_a_at) / RFU ID3 (11757404_x_at) / Fold change /veh ID3 (11757404_x_at) / RFU PLEKHG5 (11737974_s_at) / Fold change /veh PLEKHG5 (11737974_s_at) / RFU LRRC4B (11730491_at) / Fold change /veh LRRC4B (11730491_at) / RFU GIMAP4 (11747438_a_at) / Fold change /veh GIMAP4 (11747438_a_at) / RFU KRT8 (11758183_x_at) / Fold change /veh KRT8 (11758183_x_at) / RFU CNN1 (11734310_a_at) / Fold change /veh CNN1 (11734310_a_at) / RFU VPS37D (11726825_at) / Fold change /veh VPS37D (11726825_at) / RFU C10orf10 (11716522_x_at) / Fold change /veh C10orf10 (11716522_x_at) / RFU KIR2DL2 /// KIR2DL4 /// KIR2DL5A /// KIR2DL5B /// KIR2DS1 /// KIR2DS2 /// KIR2DS3 /// KIR2DS4 /// KIR3DL3 /// KIR3DL3 /// KIR3DS1 (11738374_at) / Fold change /veh KIR2DL2 /// KIR2DL4 /// KIR2DL5A /// KIR2DL5B /// KIR2DS1 /// KIR2DS2 /// KIR2DS3 /// KIR2DS4 /// KIR3DL3 /// KIR3DL3 /// KIR3DS1 (11738374_at) / RFU C1QL1 (11718748_at) / Fold change /veh C1QL1 (11718748_at) / RFU TMPRSS4 (11747572_a_at) / Fold change /veh TMPRSS4 (11747572_a_at) / RFU HAMP (11756126_x_at) / Fold change /veh HAMP (11756126_x_at) / RFU RNFT2 (11725882_a_at) / Fold change /veh RNFT2 (11725882_a_at) / RFU NR4A2 (11747474_a_at) / Fold change /veh NR4A2 (11747474_a_at) / RFU ABCC12 (11746883_a_at) / Fold change /veh ABCC12 (11746883_a_at) / RFU TMEM136 (11760407_x_at) / Fold change /veh TMEM136 (11760407_x_at) / RFU CLDN22 /// WWC2 (11732394_at) / Fold change /veh CLDN22 /// WWC2 (11732394_at) / RFU HLA-DPB1 (11760878_x_at) / Fold change /veh HLA-DPB1 (11760878_x_at) / RFU SPINT1 (11716480_a_at) / Fold change /veh SPINT1 (11716480_a_at) / RFU GAP43 (11754022_s_at) / Fold change /veh GAP43 (11754022_s_at) / RFU A4GNT (11735810_at) / Fold change /veh A4GNT (11735810_at) / RFU PRB3 (11715151_x_at) / Fold change /veh PRB3 (11715151_x_at) / RFU TUBB4B (11761932_at) / Fold change /veh TUBB4B (11761932_at) / RFU CAPN14 (11732068_a_at) / Fold change /veh CAPN14 (11732068_a_at) / RFU TMCC2 (11721928_a_at) / Fold change /veh TMCC2 (11721928_a_at) / RFU IRGQ (11745062_a_at) / Fold change /veh IRGQ (11745062_a_at) / RFU FAM174B (11720279_a_at) / Fold change /veh FAM174B (11720279_a_at) / RFU TMPRSS4 (11748680_a_at) / Fold change /veh TMPRSS4 (11748680_a_at) / RFU FAM212B (11763350_a_at) / Fold change /veh FAM212B (11763350_a_at) / RFU PLEKHG5 (11743358_a_at) / Fold change /veh PLEKHG5 (11743358_a_at) / RFU ZSCAN30 (11745921_a_at) / Fold change /veh ZSCAN30 (11745921_a_at) / RFU CMKLR1 (11741424_a_at) / Fold change /veh CMKLR1 (11741424_a_at) / RFU LOC101060620 /// MAPK8IP1 (11723275_at) / Fold change /veh LOC101060620 /// MAPK8IP1 (11723275_at) / RFU SPTSSB (11747773_x_at) / Fold change /veh SPTSSB (11747773_x_at) / RFU PRSS12 (11739890_at) / Fold change /veh PRSS12 (11739890_at) / RFU BIN1 (11741810_x_at) / Fold change /veh BIN1 (11741810_x_at) / RFU WNT11 (11732464_a_at) / Fold change /veh WNT11 (11732464_a_at) / RFU C10orf10 (11716521_a_at) / Fold change /veh C10orf10 (11716521_a_at) / RFU C5orf56 (11738089_at) / Fold change /veh C5orf56 (11738089_at) / RFU CYB561 (11721691_x_at) / Fold change /veh CYB561 (11721691_x_at) / RFU ANKRD19P (11752326_a_at) / Fold change /veh ANKRD19P (11752326_a_at) / RFU OR2T12 /// OR2T33 /// OR2T8 (11738714_s_at) / Fold change /veh OR2T12 /// OR2T33 /// OR2T8 (11738714_s_at) / RFU VCAN (11748164_a_at) / Fold change /veh VCAN (11748164_a_at) / RFU JSRP1 (11732532_at) / Fold change /veh JSRP1 (11732532_at) / RFU KRTAP10-11 (11738290_x_at) / Fold change /veh KRTAP10-11 (11738290_x_at) / RFU MYO3A (11730013_a_at) / Fold change /veh MYO3A (11730013_a_at) / RFU EBF3 (11725865_a_at) / Fold change /veh EBF3 (11725865_a_at) / RFU CAMK2N1 (11719241_x_at) / Fold change /veh CAMK2N1 (11719241_x_at) / RFU C5orf56 (11738088_a_at) / Fold change /veh C5orf56 (11738088_a_at) / RFU OLFML3 (11715873_a_at) / Fold change /veh OLFML3 (11715873_a_at) / RFU LOC100653217 /// NTM (11731650_a_at) / Fold change /veh LOC100653217 /// NTM (11731650_a_at) / RFU MAPK11 (11762145_a_at) / Fold change /veh MAPK11 (11762145_a_at) / RFU FIZ1 (11724087_x_at) / Fold change /veh FIZ1 (11724087_x_at) / RFU OASL (11726364_x_at) / Fold change /veh OASL (11726364_x_at) / RFU SOX15 (11748057_x_at) / Fold change /veh SOX15 (11748057_x_at) / RFU CD79A (11719716_a_at) / Fold change /veh CD79A (11719716_a_at) / RFU HIST1H1D (11736915_at) / Fold change /veh HIST1H1D (11736915_at) / RFU CASKIN2 (11723855_a_at) / Fold change /veh CASKIN2 (11723855_a_at) / RFU LOC730098 (11760151_x_at) / Fold change /veh LOC730098 (11760151_x_at) / RFU OR4N2 (11742367_at) / Fold change /veh OR4N2 (11742367_at) / RFU PRRT2 (11749266_a_at) / Fold change /veh PRRT2 (11749266_a_at) / RFU SNX32 (11753110_a_at) / Fold change /veh SNX32 (11753110_a_at) / RFU CDHR5 (11726645_a_at) / Fold change /veh CDHR5 (11726645_a_at) / RFU RCAN1 (11760418_a_at) / Fold change /veh RCAN1 (11760418_a_at) / RFU FAM167A (11723789_a_at) / Fold change /veh FAM167A (11723789_a_at) / RFU FAM26E (11764081_at) / Fold change /veh FAM26E (11764081_at) / RFU ISYNA1 (11749810_s_at) / Fold change /veh ISYNA1 (11749810_s_at) / RFU ACY1 (11761880_at) / Fold change /veh ACY1 (11761880_at) / RFU 11764098_at / Fold change /veh 11764098_at / RFU SAMD14 (11745864_x_at) / Fold change /veh SAMD14 (11745864_x_at) / RFU NPB (11741838_a_at) / Fold change /veh NPB (11741838_a_at) / RFU TMPRSS6 (11731388_a_at) / Fold change /veh TMPRSS6 (11731388_a_at) / RFU KRTAP10-2 (11738614_at) / Fold change /veh KRTAP10-2 (11738614_at) / RFU ARHGAP8 /// PRR5-ARHGAP8 (11727945_x_at) / Fold change /veh ARHGAP8 /// PRR5-ARHGAP8 (11727945_x_at) / RFU KRTAP5-7 /// NADSYN1 (11734609_at) / Fold change /veh KRTAP5-7 /// NADSYN1 (11734609_at) / RFU RASL12 (11751679_a_at) / Fold change /veh RASL12 (11751679_a_at) / RFU CDKN2B (11736163_a_at) / Fold change /veh CDKN2B (11736163_a_at) / RFU PRF1 (11729649_at) / Fold change /veh PRF1 (11729649_at) / RFU, ZNF638 /// ZNF638-IT1 / Fold change vs veh, ZNF638 /// ZNF638-IT1 / RFU, PANK3 / Fold change vs veh, PANK3 / RFU, SH3YL1 / Fold change vs veh, SH3YL1 / RFU, ZEB2 / Fold change vs veh, ZEB2 / RFU, NRIP1 / Fold change vs veh, NRIP1 / RFU, PTTG1IP / Fold change vs veh, PTTG1IP / RFU, CAPN2 / Fold change vs veh, CAPN2 / RFU, MED14 / Fold change vs veh, MED14 / RFU, SNORA58 / Fold change vs veh, SNORA58 / RFU, C1orf63 / Fold change vs veh, C1orf63 / RFU, LRRFIP1 / Fold change vs veh, LRRFIP1 / RFU, NDUFAF7 / Fold change vs veh, NDUFAF7 / RFU, SLC12A2 / Fold change vs veh, SLC12A2 / RFU, IBTK / Fold change vs veh, IBTK / RFU, ESF1 / Fold change vs veh, ESF1 / Fold change vs veh, TMEM50B / RFU, TAOK1 / Fold change vs veh, TAOK1 / RFU, ACBD3 / Fold change vs veh, ACBD3 / RFU, TMA16 / Fold change vs veh, TMA16 / RFU, RWDD3 / Fold change vs veh, RWDD3 / RFU, BCAT1 / Fold change vs veh, BCAT1 / RFU, EDEM3 / Fold change vs veh, EDEM3 / RFU, TMEM33 / Fold change vs veh, TMEM33 / RFU, WDR75 / Fold change vs veh, WDR75 / RFU, AHCTF1 / Fold change vs veh, AHCTF1 / RFU, TFRC / Fold change vs veh, TFRC / RFU, ZDHHC17 / Fold change vs veh, ZDHHC17 / RFU, NOM1 / Fold change vs veh, NOM1 / RFU, ARL8B / Fold change vs veh, ARL8B / RFU, ZBTB11 / Fold change vs veh, ZBTB11 / RFU, TAMM41 / Fold change vs veh, TAMM41 / RFU, KIAA1704 /// LOC100996395 / Fold change vs veh, KIAA1704 /// LOC100996395 / RFU, ING1 / Fold change vs veh, ING1 / RFU, TRMT61B / Fold change vs veh, TRMT61B / RFU, FUBP3 / Fold change vs veh, FUBP3 / RFU, TP53 / Fold change vs veh, TP53 / RFU, TNKS2 / Fold change vs veh, TNKS2 / RFU, ZFP14 / Fold change vs veh, ZFP14 / RFU, ACTR2 / Fold change vs veh, ACTR2 / RFU, PPP3R1 / Fold change vs veh, PPP3R1 / RFU, PIK3R1 / Fold change vs veh, PIK3R1 / RFU, HNRNPA1 / Fold change vs veh, HNRNPA1 / RFU, RNF170 / Fold change vs veh, RNF170 / RFU, ZNF28 / Fold change vs veh, ZNF28 / RFU, RNGTT / Fold change vs veh, RNGTT / RFU, OGT / Fold change vs veh, OGT / RFU, BRD1 / Fold change vs veh, BRD1 / RFU, MARS / Fold change vs veh, MARS / RFU, ZNF655 / Fold change vs veh, ZNF655 / RFU, FAHD1 / Fold change vs veh, FAHD1 / RFU, BDP1 / Fold change vs veh, BDP1 / RFU, LRRCC1 / Fold change vs veh, LRRCC1 / RFU, ARID1A / Fold change vs veh, ARID1A / RFU, ZNF146 / Fold change vs veh, ZNF146 / RFU, ZNF330 / Fold change vs veh, ZNF330 / RFU, GPN3 / Fold change vs veh, GPN3 / RFU, C9orf123 / Fold change vs veh, C9orf123 / RFU, N4BP2L2 / Fold change vs veh, N4BP2L2 / RFU, ARFIP1 / Fold change vs veh, ARFIP1 / RFU, FAM179B / Fold change vs veh, FAM179B / RFU, BCL10 / Fold change vs veh, BCL10 / RFU, UHRF1BP1L / Fold change vs veh, UHRF1BP1L / RFU, BET1 / Fold change vs veh, BET1 / RFU, CNOT2 / Fold change vs veh, CNOT2 / RFU, ZNF268 / Fold change vs veh, ZNF268 / Fold change vs veh, ZNF507 / RFU, DGCR2 / Fold change vs veh, DGCR2 / RFU, WDSUB1 / Fold change vs veh, WDSUB1 / Fold change vs veh, HSP90B1 /// MIR3652 / RFU, ADSS / Fold change vs veh, ADSS / RFU, GK / Fold change vs veh, GK / RFU, ZNF148 / Fold change vs veh, ZNF148 / RFU, TAF9 / Fold change vs veh, TAF9 / RFU, SLC1A5 / Fold change vs veh, SLC1A5 / RFU, SLMO2 / Fold change vs veh, SLMO2 / RFU, ABCC4 / Fold change vs veh, ABCC4 / RFU, LOC101060439 /// RAP1B / Fold change vs veh, LOC101060439 /// RAP1B / RFU, RFX7 / Fold change vs veh, RFX7 / RFU, GTPBP10 / Fold change vs veh, GTPBP10 / RFU, CNEP1R1 / Fold change vs veh, CNEP1R1 / RFU, BIVM-ERCC5 /// ERCC5 / Fold change vs veh, BIVM-ERCC5 /// ERCC5 / RFU, ILF3 / Fold change vs veh, ILF3 / RFU 11762660_at / Fold change /veh 11762660_at / RFU VCAN (11757783_s_at) / Fold change /veh VCAN (11757783_s_at) / RFU DDX43 (11728927_at) / Fold change /veh DDX43 (11728927_at) / RFU KRT8 (11758188_x_at) / Fold change /veh KRT8 (11758188_x_at) / RFU NKD1 (11759106_at) / Fold change /veh NKD1 (11759106_at) / RFU SRD5A1 (11742802_a_at) / Fold change /veh SRD5A1 (11742802_a_at) / RFU TPSAB1 /// TPSB2 (11721975_s_at) / Fold change /veh TPSAB1 /// TPSB2 (11721975_s_at) / RFU GSTM3 (11746129_a_at) / Fold change /veh GSTM3 (11746129_a_at) / RFU IL23R (11737362_x_at) / Fold change /veh IL23R (11737362_x_at) / RFU TMEM51 (11727254_a_at) / Fold change /veh TMEM51 (11727254_a_at) / RFU PIWIL2 (11732686_x_at) / Fold change /veh PIWIL2 (11732686_x_at) / RFU ORM1 (11744905_x_at) / Fold change /veh ORM1 (11744905_x_at) / RFU CCDC152 (11743942_at) / Fold change /veh CCDC152 (11743942_at) / RFU ECM1 (11717891_a_at) / Fold change /veh ECM1 (11717891_a_at) / RFU IL23R (11748794_a_at) / Fold change /veh IL23R (11748794_a_at) / RFU TNFAIP8L3 (11732012_x_at) / Fold change /veh TNFAIP8L3 (11732012_x_at) / RFU MBOAT4 (11741988_at) / Fold change /veh MBOAT4 (11741988_at) / RFU 11764193_at / Fold change /veh 11764193_at / RFU TMEM53 (11763286_at) / Fold change /veh TMEM53 (11763286_at) / RFU MAGEB2 (11727129_at) / Fold change /veh MAGEB2 (11727129_at) / RFU TMEM200A (11744735_a_at) / Fold change /veh TMEM200A (11744735_a_at) / RFU CCDC152 (11751479_a_at) / Fold change /veh CCDC152 (11751479_a_at) / RFU FAM211A (11726209_a_at) / Fold change /veh FAM211A (11726209_a_at) / RFU RGS16 (11746705_a_at) / Fold change /veh RGS16 (11746705_a_at) / RFU VCAN (11755009_s_at) / Fold change /veh VCAN (11755009_s_at) / RFU RHOB (11743442_s_at) / Fold change /veh RHOB (11743442_s_at) / RFU RGS16 (11720943_a_at) / Fold change /veh RGS16 (11720943_a_at) / RFU RGS16 (11720944_at) / Fold change /veh RGS16 (11720944_at) / RFU, VPS4B / Fold change vs veh, VPS4B / RFU, CREB1 / Fold change vs veh, CREB1 / RFU, DNAJC13 / Fold change vs veh, DNAJC13 / RFU, GNAQ / Fold change vs veh, GNAQ / RFU, CDK5R1 / Fold change vs veh, CDK5R1 / RFU, ZRANB3 / Fold change vs veh, ZRANB3 / RFU, CUL4A / Fold change vs veh, CUL4A / RFU, CCNY / Fold change vs veh, CCNY / RFU, UFL1 / Fold change vs veh, UFL1 / RFU, COG3 / Fold change vs veh, COG3 / RFU, DIAPH2 / Fold change vs veh, DIAPH2 / RFU, SKA2 / Fold change vs veh, SKA2 / RFU, AFF3 / Fold change vs veh, AFF3 / RFU, LMF1 / Fold change vs veh, LMF1 / RFU, IPO11 / Fold change vs veh, IPO11 / RFU, DFFB / Fold change vs veh, DFFB / RFU, FOXP1 / Fold change vs veh, FOXP1 / RFU, CARD8 / Fold change vs veh, CARD8 / RFU, STRN3 / Fold change vs veh, STRN3 / RFU, ADK / Fold change vs veh, ADK / RFU, RASSF2 / Fold change vs veh, RASSF2 / RFU, WIPF1 / Fold change vs veh, WIPF1 / RFU, LARP1B / Fold change vs veh, LARP1B / RFU, RASA1 / Fold change vs veh, RASA1 / RFU, RB1 / Fold change vs veh, RB1 / RFU, PPFIA1 / Fold change vs veh, PPFIA1 / RFU, MAT2A / Fold change vs veh, MAT2A / RFU, CCT5 / Fold change vs veh, CCT5 / RFU, WDR92 / Fold change vs veh, WDR92 / RFU, CUX1 / Fold change vs veh, CUX1 / RFU, TTC7A / Fold change vs veh, TTC7A / RFU, TMEM135 / Fold change vs veh, TMEM135 / RFU, DEPTOR / Fold change vs veh, DEPTOR / RFU, CPM / Fold change vs veh, CPM / RFU, DNAJB6 / Fold change vs veh, DNAJB6 / RFU, CACNA2D3 / Fold change vs veh, CACNA2D3 / RFU, DTX4 / Fold change vs veh, DTX4 / RFU, TFCP2 / Fold change vs veh, TFCP2 / RFU, GMCL1 /// GMCL1P1 / Fold change vs veh, GMCL1 /// GMCL1P1 / RFU, AEBP2 / Fold change vs veh, AEBP2 / RFU, SNHG1 /// SNORD22 /// SNORD25 /// SNORD26 /// SNORD27 /// SNORD28 /// SNORD29 /// SNORD31 / Fold change vs veh, SNHG1 /// SNORD22 /// SNORD25 /// SNORD26 /// SNORD27 /// SNORD28 /// SNORD29 /// SNORD31 / Fold change (Aza/veh), C12orf56 (ProbeSet 11735607_a_at) / Fold change (ACY-1035/veh), C12orf56 (ProbeSet 11735607_a_at) / Fold change (Aza/veh), FGFR1OP (ProbeSet 11751329_s_at) / Fold change (ACY-1035/veh), FGFR1OP (ProbeSet 11751329_s_at) / Fold change (Aza/veh), VPS36 (ProbeSet 11739960_a_at) / Fold change (ACY-1035/veh), VPS36 (ProbeSet 11739960_a_at) / RFU SYPL1 (11715823_x_at) / Fold change /veh SYPL1 (11715823_x_at) / RFU IGFBP7 (11715501_s_at) / Fold change /veh IGFBP7 (11715501_s_at) / RFU REEP3 (11722064_at) / Fold change /veh REEP3 (11722064_at) / RFU IGLL1 (11728026_x_at) / Fold change /veh IGLL1 (11728026_x_at): dose or concentration left out as unconfirmed
Details: ProbeSet 11746640_a_at; LIST D

For Nc1ncn([C@@H]2O[C@H](CO)[C@@H](O)[C@H]2O)c(=O)n1 [azacitidine], which “RFU, RASSF2” value is on record?
The value was 35.94 RFU.
